Key:
[1] = tested on: Giardia intestinalis; test: Anti-parasitic activity against Giardia intestinalis assemblage A ATCC 30957 trophozoites assessed as inhibition of cyst production incubated for 24 hrs; type: functional, organism-based; conditions: Giardia duodenalis, assemblage A ATCC 30957, 24 h
[2] = tested on: Giardia intestinalis; test: Anti-parasitic activity against Giardia intestinalis assemblage A ATCC 30957 trophozoites assessed as inhibition of parasite growth incubated for 24 hrs; type: functional, organism-based; conditions: Giardia duodenalis, assemblage A ATCC 30957, 24 h

| SMILES | IC50 [1] [µM] | IC50 [2] [µM] |
| --- | --- | --- |
| CCC(CC)O[C@@H]1CC(C(=O)O)=C[C@H](N=[N+]=[N-])[C@H]1NC(C)=O | 50 | 30 |
| CCCC(=O)N[C@@H]1[C@@H](N=[N+]=[N-])C=C(C(=O)O)C[C@H]1OC(CC)CC | 46 | 51 |
| CCOC(=O)C1=C[C@H](NC(=O)CF)[C@@H](NC(C)=O)[C@H](OC(CC)CC)C1 | 41 | 54 |
| CCOC(=O)C1=C[C@@H](OC(CC)CC)[C@H](NC(C)=O)[C@@H](N)C1 [OSELTAMIVIR] | 46 | > 120 |

Further lines, with some results ahead:

| IC50 [1] [µM] | SMILES | IC50 [2] [µM] |
| --- | --- | --- |
| 42 | CCC(CC)O[C@@H]1CC(C(=O)O)=C[C@H](N)[C@H]1NC(C)=O | 49 |
| 41 | CCC(CC)O[C@@H]1CC(C(=O)O)=C[C@H](NC(C)=O)[C@H]1NC(C)=O | 40 |
| 4 | Cc1ncc([N+](=O)[O-])n1CCO [METRONIDAZOLE] | 4 |

— ChEMBL document CHEMBL6087425, “Synthesis and evaluation of anti-Giardia activity of oseltamivir analogs” (Bioorg Med Chem Lett, 2025)
